Among the data in ChEMBL document CHEMBL1141153, “A molecular target for suppression of the evolution of antibiotic resistance: inhibition of the Escherichia coli RecA protein by N(6)-(1-naphthyl)-ADP” (J Med Chem, 2005) are Kic values, retold here.

The test deals with T1, Protein RecA (Escherichia coli K-12) (UniProt P0A7G6).
T1 sequence (whole entry): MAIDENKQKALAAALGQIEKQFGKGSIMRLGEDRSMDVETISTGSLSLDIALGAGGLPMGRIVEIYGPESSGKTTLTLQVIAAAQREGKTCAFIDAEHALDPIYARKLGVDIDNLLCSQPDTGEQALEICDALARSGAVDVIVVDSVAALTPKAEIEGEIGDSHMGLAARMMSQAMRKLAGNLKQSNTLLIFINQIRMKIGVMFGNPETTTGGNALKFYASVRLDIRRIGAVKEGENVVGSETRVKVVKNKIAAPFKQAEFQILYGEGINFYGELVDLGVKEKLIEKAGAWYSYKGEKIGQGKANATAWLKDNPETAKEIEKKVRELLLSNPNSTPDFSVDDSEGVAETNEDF
Briefly: In vitro apparent inhibition constant against Escherichia coli RecA protein.

As to `O=P(O)(O)OP(=O)(O)OC[C@H]1O[C@@H](n2cnc3c(Nc4cccc5ccccc45)ncnc32)[C@H](O)[C@@H]1O`, the Kic came to 46 µM.
